The values that follow come from US7005138B2, “Method of systematically delivering SSRIs” (Duramed Pharmaceuticals, Inc., priority 2001, dated 2006).

For data set [1] the following is noted: oral administration; cited from earlier work.
A short description of data set [2]: Rabbit study: plasma levels of fluoxetine and norfluoxetine after single oral vs. intravaginal dose. As to the method: (§1) A study was designed to compare the pharmacokinetic profiles of oral vs. intravaginal administration of fluoxetine in white albino female New Zealand rabbits. The study compared the blood levels of fluoxetine and/or its metabolites in the rabbits after either a single oral dose or a single intravaginal dose of fluoxetine hydrochloride. Both oral (tablet) and intravaginal (transvaginal insert) administration delivered the standard human daily dose of 20 mg fluoxetine hydrochloride to each rabbit. The oral route was used to compare the bioavailability of fluoxetine by the two routes of administration.
(§2) Three rabbits received the fluoxetine tablets orally, while three rabbits received fluoxetine inserts intravaginally. The fluoxetine tablets were administered orally using an animal pilling device. The fluoxetine inserts were administered by insertion into the vaginas of the rabbits. The inserts remained in place for 2–4 hours, after which they were removed. Removal was accomplished by using an appropriate instrument to grasp the extension on the back of the insert. If an insert was expelled from an animal before removal, it was noted but not replaced. Both tablets and intravaginal inserts were administered once on Day 0.
Blood samples were obtained for the determination of plasma concentrations of fluoxetine. Starting on Day 0, blood samples were obtained for toxicokinetic determinations from all animals pretest and at 1, 3, 8, 12, 16, 24, 36, 48, 72, 96, 120, 144, 168, 240, 360, 480, 672 and 840 hours post-dose. Pre-dose samples were collected one week prior to dosing. Approximately 1.5 mL of whole blood was obtained from the medial auricular artery of the unanesthetized rabbits, unfasted, and were preserved using ethylenediamine tetraacetic acid (EDTA). […]
The EDTA preserved rabbit plasma samples were analyzed for fluoxetine and norfluoxetine using a solid phase extraction (SPE) technique. […]
Samples were evaluated using a solid phase extraction technique using conditioned SPE cartridges, then analyzed via HPLC and mass spectroscopy. […]

For data set [3] the following is noted: rabbit, cited from earlier work.
The conditions of data set [4]: rabbit. On the procedure:
as §1, §2
The animals were observed twice daily for mortality and general condition. Animals in poor health were identified and further monitored. In addition, observations were made for any signs of toxic or pharmacologic effects (e.g., abnormalities in general, appearance, activity, behavior, respiration, etc.).

`NCCC(Oc1ccc(C(F)(F)F)cc1)c1ccccc1` (stereo not shown) [norfluoxetine]: the half life in data set [1] is 170 to 220 h. Besides, in data set [2] (after fluoxetine single 20 mg dose), the “mean plasma levels of metabolite norfluoxetine, intravaginal delivery compared to oral delivery” value is “much lower”. In addition, the “mean norfluoxetine levels, persistence” value in data set [2] (oral group) is “present throughout most of the study”.

For `CNCCC(Oc1ccc(C(F)(F)F)cc1)c1ccccc1` (racemic) [fluoxetine, dl-N-methyl-γ-[4-(trifluoromethyl)phenoxy]benzenepropanamine], the half life in data set [1] was 48 to 72 h. For the same compound, in data set [2] (in vivo, po), the “fluoxetine plasma levels after 72 hours” value is on record as “almost undetectable”. Further, in data set [3] (in vivo), the “tolerability of repeated daily doses” value is recorded as “fairly well tolerated”. Moreover, the “mortality with repeated daily doses” value in data set [3] (up to 7.5 mg/kg/day) is recorded as “not associated with mortality”. Also, in data set [4] (in vivo, po), the decreased food consumption entry is “One animal from each treatment group” and the “differences in clinical observations or body weights between administration methods” value is “no differences”. Also, in data set [4] (oral tablet and intravaginal insert groups, length of the study), the mortality entry is on record as “No mortality”.
